Source: patent US6737383B1, “Herbicidal oxadiazolidines” (priority 1999, dated 2004)

Legend:
[1] = test system: bedstraw; experiment: Test B pre/postemergence bedstraw; type: in vivo, Galium aparine; settings: Preemergence
In short: (§1)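 Herbicidal effect was estimated by eye on a ten-point control scale after plants spent twelve to sixteen days in a greenhouse following soil or foliar treatment. Foliar sprays targeted plants at one to four leaves; all doses were formulated in a non-phytotoxic solvent with surfactant.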

[2] = test system: blackgrass; experiment: Test B pre/postemergence blackgrass; type: in vivo, Alopecurus myosuroides; settings: Preemergence
In short: as §1

[3] = test system: surinam grass; experiment: Test B pre/postemergence surinam grass; type: in vivo, Brachiaria decumbens; settings: Preemergence
In short: as §1

[4] = test system: cocklebur; experiment: Test B pre/postemergence cocklebur; type: in vivo, Xanthium strumarium; settings: Preemergence
In short: as §1

[5] = test system: corn; experiment: Test B pre/postemergence corn; type: in vivo, Zea mays; settings: Preemergence
In short: as §1

[6] = test system: crabgrass; experiment: Test B pre/postemergence crabgrass; type: in vivo, Digitaria sanguinalis; settings: Preemergence
In short: as §1

[7] = test system: giant foxtail; experiment: Test B pre/postemergence giant foxtail; type: in vivo, Setaria faberii; settings: Preemergence
In short: as §1

[8] = test system: morningglory; experiment: Test B pre/postemergence morningglory; type: in vivo, Ipomoea hederacea; settings: Preemergence
In short: as §1

[9] = test system: pigweed; experiment: Test B pre/postemergence pigweed; type: in vivo, Amaranthus retroflexus; settings: Preemergence
In short: as §1

[10] = test system: rape; experiment: Test B pre/postemergence rape; type: in vivo, Brassica napus; settings: Preemergence
In short: as §1

[11] = test system: soybean; experiment: Test B pre/postemergence soybean; type: in vivo, Glycine max; settings: Preemergence
In short: as §1

[12] = test system: sugar beet; experiment: Test B pre/postemergence sugar beet; type: in vivo, Beta vulgaris; settings: Preemergence
In short: as §1

[13] = test system: velvetleaf; experiment: Test B pre/postemergence velvetleaf; type: in vivo, Abutilon theophrasti; settings: Preemergence
In short: as §1

[14] = test system: wheat; experiment: Test B pre/postemergence wheat; type: in vivo, Triticum aestivum; settings: Preemergence
In short: as §1

[15] = test system: wild oat; experiment: Test B pre/postemergence wild oat; type: in vivo, Avena fatua; settings: Preemergence
In short: as §1

[16] = test system: purple nutsedge; experiment: Test B pre/postemergence purple nutsedge; type: in vivo, Cyperus rotundus; settings: Preemergence, Rate 125 g/ha; scale of 0 to 10 where 0 is no effect and 10 is complete control
In short: as §1

[17] = Rate 125 g/ha, scale of 0 to 10 where 0 is no effect and 10 is complete control
[18] = Rate 250 g/ha, scale 0 to 10 (0 no effect, 10 complete control)
[19] = Rate 500 g/ha, scale of 0 to 10 where 0 is no effect and 10 is complete control
[20] = Rate 1000 g/ha, scale 0 to 10 (0 no effect, 10 complete control)

## COP(=O)(CCn1c(=O)on(C(=O)N(c2ccc(Cl)cc2)C(C)C)c1=O)OC [Compound 698]
[1]; [17]
  Plant response rating, Bedstraw: 0
[1]; [18]
  Plant response rating, Bedstraw: 0
[1]; [19]
  Plant response rating, Bedstraw: 0
[1]; [20]
  Plant response rating, Bedstraw: 0
[2]; [17]
  Plant response rating, Blackgrass: 0
[2]; [18]
  Plant response rating, Blackgrass: 2
[2]; [19]
  Plant response rating, Blackgrass: 8
[2]; [20]
  Plant response rating, Blackgrass: 9
[3]; [17]
  Plant response rating, B. signalgrass: 0
[3]; [18]
  Plant response rating, B. signalgrass: 3
[3]; [19]
  Plant response rating, B. signalgrass: 5
[3]; [20]
  Plant response rating, B. signalgrass: 4
[4]; [17]
  Plant response rating, Cocklebur: 0
[4]; [18]
  Plant response rating, Cocklebur: 0
[4]; [19]
  Plant response rating, Cocklebur: 0
[4]; [20]
  Plant response rating, Cocklebur: 0
[5]; [17]
  Plant response rating, Corn: 0
[5]; [18]
  Plant response rating, Corn: 0
[5]; [20]
  Plant response rating, Corn: 0
[6]; [17]
  Plant response rating, Crabgrass: 3
[6]; [18]
  Plant response rating, Crabgrass: 8
[6]; [20]
  Plant response rating, Crabgrass: 9
[7]; [17]
  Plant response rating, Giant foxtail: 0
[7]; [20]
  Plant response rating, Giant foxtail: 10
[8]; [17]
  Plant response rating, Morningglory: 0
[8]; [20]
  Plant response rating, Morningglory: 0
[9]; [17]
  Plant response rating, Redroot pigweed: 0
[9]; [20]
  Plant response rating, Redroot pigweed: 0
[10]; [17]
  Plant response rating, Rape: 0
[10]; [20]
  Plant response rating, Rape: 8
[11]; [17]
  Plant response rating, Soybean: 0
[11]; [20]
  Plant response rating, Soybean: 3
[12]; [17]
  Plant response rating, Sugarbeets: 0
[12]; [20]
  Plant response rating, Sugarbeets: 0
[13]; [17]
  Plant response rating, Velvetleaf: 0
[13]; [20]
  Plant response rating, Velvetleaf: 0
[14]; [17]
  Plant response rating, Wheat: 0
[14]; [20]
  Plant response rating, Wheat: 6
[15]; [17]
  Plant response rating, Wild oats: 0
[15]; [20]
  Plant response rating, Wild oats: 10
[16]
  Plant response rating, Nutsedge: 0
